Read-outs that look alike come from different tables or passages of the source.
Assays:
[1] = target: T1, FAK (Homo sapiens, UniProt Q05397); test: Western blot degradation of FAK; format: cell-based; conditions: Table D7
T1 construct: evaluate the effects of the compounds of the present disclosure on the expression of target proteins in cells; endogenous in cells
Procedure: Conventional Western blot assay was performed to evaluate the effects of the compounds of the present disclosure on the expression of target proteins in cells.
(1) Cell Seeding and Protein Harvesting: The selected cells were processed according to the cell seeding procedure and protein harvesting procedure in Table III-2. Table III-2 Cell Seeding and Protein Harvesting Procedures
(2) To the collected supernatant, 5X SDS sample loading buffer was added, followed by denaturation at 95°C for 5 minutes. The denatured samples were then separated by SDS-PAGE electrophoresis on a polyacrylamide gel. Proteins were transferred to a nitrocellulose membrane (0.45 µm NC membrane), blocked with blocking buffer at room temperature for 1 hour, and subjected to antibody incubation and development procedures according to the antibody manufacturer's instructions (Cell Signaling Technology).
Half-Maximal Degradation Concentration value (the drug concentration required for degrading proteins by 50%, abbreviated as DC50) reads method: comparing the grayscale values of Western blot bands from drug-treated samples with those from blank DMSO-treated controls, and identifying the drug concentration range at which the grayscale value is half that of the DMSO-treated control bands.
DC50 values can be calculated using ImageJ software to measure grayscale values of Western blot bands from drug-treated samples. The concentration-response curve is fitted to estimate the drug concentration corresponding to half the grayscale value.
Target protein remaining (%) refers to the percentage of target protein remaining in hPBMC cells after treatment with protein degrader compounds.
Calculation method for target protein remaining (%): Use ImageJ software to measure grayscale values of Western blot bands from drug (protein degrader)-treated samples. The grayscale value of drug-treated bands is divided by that of internal control protein bands, and the resulting quotient is normalized to obtain the relative percentage of remaining target protein after protein degrader treatment.
Target protein degradation rate (%) = 100% - target protein remaining (%).

[2] = system: CCRF-CEM; test: CCK-8 proliferation, CCRF-CEM; format: cell-based, Human; conditions: Homo sapiens, CCRF-CEM; CCK-8; 96 hours; read-out: Inhibitory activity (IC50) on tumor cell proliferation, CCRF-CEM
Outline: (§1)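 Tumor cells were cultured at 37°C with 5% CO2, seeded, and after 24h treated with compounds at 10 concentrations starting at 10µM (5-fold serial dilutions).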

[3] = system: Jurkat; test: CCK-8 proliferation, Jurkat; format: cell-based, Human; conditions: Homo sapiens
Procedure: The tumor cells used herein were cultured in a cell culture medium listed in table A1 at 37°C in an incubator with 5% CO2. Prior to experimentation, all cell lines used were correctly identified by STR profiling, and tested negative for mycoplasma contamination using a mycoplasma detection kit through routine screenings. Table A1. Tumor cells and cell culture medium used in the present disclosure
IC50 values of the compounds of the present disclosure (including the compounds in Table 1, and compounds of examples) were measured using the Meilun Cell Counting Kit-8 kit from Dalian Meilun Biotech Co., Ltd. Assay details are as follows: tumor cells were seeded in a 96-well plate at a density listed in Table A2. After 24h, 100 µL of the inoculated cells were treated with 0.5µL of the compounds of the present disclosure (including the compounds in Tables 1 and 2, and compounds of examples) at 10 different successively decreasing concentrations (starting at the highest concentration of 10µM; 5-fold serial dilutions). After the cells were treated with the compounds of the present disclosure for a period of time, the cell viability detection reagent was added to the culture medium for cell viability assessment according to the instructions provided with the CCK-8 kit. […] The growth inhibition of the compounds of the present disclosure on cells was plotted by Prism Graphpad software, and the IC50 values of the compounds of the present disclosure were calculated therefrom. […] Seeding protocol and treatment time for tumor cells

[4] = target: T2, IRAK4 (Homo sapiens, UniProt Q9NWZ3); test: Western blot degradation of IRAK4 (hPBMC); format: cell-based; conditions: Table D1
T2 construct: evaluate the effects of the compounds of the present disclosure on the expression of target proteins in cells; endogenous in cells; host or cells: hPBMC
T2 sequence (Q9NWZ3 1-460): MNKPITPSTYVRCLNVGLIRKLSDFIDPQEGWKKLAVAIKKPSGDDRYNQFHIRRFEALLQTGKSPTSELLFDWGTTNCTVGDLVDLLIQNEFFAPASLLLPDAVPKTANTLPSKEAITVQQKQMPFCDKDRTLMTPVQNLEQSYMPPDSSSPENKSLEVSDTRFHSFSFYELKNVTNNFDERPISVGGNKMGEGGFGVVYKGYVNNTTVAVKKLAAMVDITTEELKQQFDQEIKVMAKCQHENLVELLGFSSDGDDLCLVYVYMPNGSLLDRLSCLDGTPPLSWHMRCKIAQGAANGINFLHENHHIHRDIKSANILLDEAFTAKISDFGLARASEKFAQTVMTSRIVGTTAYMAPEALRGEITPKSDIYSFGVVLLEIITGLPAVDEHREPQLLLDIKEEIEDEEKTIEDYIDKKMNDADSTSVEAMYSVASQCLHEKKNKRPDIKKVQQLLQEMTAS
Outline: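 After compound exposure, cells were harvested and lysates run on SDS-PAGE, transferred to nitrocellulose and probed with antibodies. Remaining target (%) was computed from band grayscale relative to an internal control protein and normalised; degradation (%) was 100% minus that.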

[5] = system: SR; test: CCK-8 proliferation, SR; format: cell-based, Human; conditions: Homo sapiens; Table B10, compounds designed based on the IRAK4 inhibitors; SR cells; read-out: Inhibitory activity (IC50, nM) on tumor cell proliferation, SR
Outline: as §1

[6] = system: MM.1S; test: CCK-8 proliferation, MM.1S; format: cell-based; conditions: Homo sapiens, MM1.S; Table B10, compounds designed based on the IRAK4 inhibitors; MM.1S cells; read-out: Inhibitory activity (IC50, nM) on tumor cell proliferation, MM.1S
Outline: as §1

[7] = Jurkat, CCK-8, 96 hours, read-out: Inhibitory activity (IC50) on tumor cell proliferation, Jurkat

T1 sequence (Q05397 whole entry, species assumed): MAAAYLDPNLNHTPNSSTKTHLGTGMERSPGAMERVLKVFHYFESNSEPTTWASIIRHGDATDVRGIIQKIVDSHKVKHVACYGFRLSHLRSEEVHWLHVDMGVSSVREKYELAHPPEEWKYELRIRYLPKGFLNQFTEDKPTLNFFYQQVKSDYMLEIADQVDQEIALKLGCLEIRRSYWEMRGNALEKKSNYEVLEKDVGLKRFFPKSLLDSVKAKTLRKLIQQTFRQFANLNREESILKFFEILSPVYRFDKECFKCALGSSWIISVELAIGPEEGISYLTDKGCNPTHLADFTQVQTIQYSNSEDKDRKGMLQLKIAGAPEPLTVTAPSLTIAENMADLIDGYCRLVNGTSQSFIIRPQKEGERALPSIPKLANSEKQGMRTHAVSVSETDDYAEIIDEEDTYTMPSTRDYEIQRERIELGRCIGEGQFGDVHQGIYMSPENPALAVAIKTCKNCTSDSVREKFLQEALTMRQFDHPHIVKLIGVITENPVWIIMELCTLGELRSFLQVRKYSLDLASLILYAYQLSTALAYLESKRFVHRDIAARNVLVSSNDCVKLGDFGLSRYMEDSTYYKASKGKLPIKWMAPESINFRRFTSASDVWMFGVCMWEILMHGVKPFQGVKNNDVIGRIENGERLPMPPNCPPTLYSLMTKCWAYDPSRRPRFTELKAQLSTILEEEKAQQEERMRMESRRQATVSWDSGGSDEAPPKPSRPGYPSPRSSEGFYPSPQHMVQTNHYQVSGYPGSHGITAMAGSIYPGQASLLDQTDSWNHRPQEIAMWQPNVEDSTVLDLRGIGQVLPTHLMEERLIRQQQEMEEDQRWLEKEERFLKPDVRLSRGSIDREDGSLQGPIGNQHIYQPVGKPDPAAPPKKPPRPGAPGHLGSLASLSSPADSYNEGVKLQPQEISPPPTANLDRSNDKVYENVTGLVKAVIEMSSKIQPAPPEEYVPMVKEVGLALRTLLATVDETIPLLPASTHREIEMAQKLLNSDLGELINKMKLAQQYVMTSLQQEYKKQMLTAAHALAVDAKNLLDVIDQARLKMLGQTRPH

Compound | Degradation of substrate protein FAK (substrate protein remaining %) [1] | other results
CS(=O)(=O)c1cccc(CNc2nc(Nc3ccc(N4CCN(Cc5ccnc(N6CCC(=O)NC6=O)c5)CC4)cc3)ncc2C(F)(F)F)c1 [GT-07462, 1-(4-((4-(4-((4-((3-(methylsulfonyl)benzyl)amino)-5-(trifluoromethyl)pyrimidin-2-yl)amino)phenyl)piperazin-1-yl)methyl)pyridin-2-yl)dihydropyrimidine-2,4(1H,3H)-dione] | A (A is defined as 0% ≤ substrate protein remaining % ≤ 80%) | –
CNC(=O)c1ccccc1Nc1cc(Nc2ccc(N3CCC(N(C)Cc4cccc(NC5CCC(=O)NC5=O)c4)CC3)cc2OC)ncc1C(F)(F)F (stereo not shown) [GT-07652, 2-((2-((4-(4-((3-((2,6-dioxopiperidin-3-yl)amino)benzyl)(methyl)amino)piperidin-1-yl)-2-methoxyphenyl)amino)-5-(trifluoromethyl)pyridin-4-yl)amino)-N-methylbenzamide] | A (A is defined as 0% ≤ substrate protein remaining % ≤ 80%) | –
CNC(=O)c1ccccc1Nc1cc(Nc2ccc(N3CCC(N(C)Cc4ccc(C5CCC(=O)NC5=O)nc4)CC3)cc2OC)ncc1C(F)(F)F (stereo not shown) [GT-07657, 2-((2-((4-(4-(((6-(2,6-dioxopiperidin-3-yl)pyridin-3-yl)methyl)(methyl)amino)piperidin-1-yl)-2-methoxyphenyl)amino)-5-(trifluoromethyl)pyridin-4-yl)amino)-N-methylbenzamide] | A (A is defined as 0% ≤ substrate protein remaining % ≤ 80%) | –
CS(=O)(=O)c1cccc(CNc2nc(Nc3ccc(N4CCN(Cc5ccc(C6CCC(=O)NC6=O)c(F)c5)CC4)cc3)ncc2C(F)(F)F)c1 (stereo not shown) [GT-03823, 3-(2-fluoro-4-((4-(4-((4-((3-(methylsulfonyl)benzyl)amino)-5-(trifluoromethyl)pyrimidin-2-yl)amino)phenyl)piperazin-1-yl)methyl)phenyl)piperidine-2,6-dione] | A (A is defined as 0% ≤ substrate protein remaining % ≤ 80%) | –
CNC(=O)c1ccccc1Nc1cc(Nc2cc(C)c(C3CCN(Cc4ccc(N5CCC(=O)NC5=O)nc4)CC3)cc2OC(C)C)ncc1C(F)(F)F [GT-07670, 2-((2-((4-(1-((6-(2,4-dioxotetrahydropyrimidin-1(2H)-yl)pyridin-3-yl)methyl)piperidin-4-yl)-2-isopropoxy-5-methylphenyl)amino)-5-(trifluoromethyl)pyridin-4-yl)amino)-N-methylbenzamide] | A (A is defined as 0% ≤ substrate protein remaining % ≤ 80%) | –
CS(=O)(=O)c1cccc(CNc2nc(Nc3ccc(N4CCN(Cc5cccc(N6CCC(=O)NC6=O)c5)CC4)cc3)ncc2C(F)(F)F)c1 [GT-04178, 1-(3-((4-(4-((4-((3-(methylsulfonyl)benzyl)amino)-5-(trifluoromethyl)pyrimidin-2-yl)amino)phenyl)piperazin-1-yl)methyl)phenyl)dihydropyr imidine-2,4(1H,3H)-dione] | A (A is defined as 0% ≤ substrate protein remaining % ≤ 80%) | –
CS(=O)(=O)c1cccc(CNc2nc(Nc3ccc(N4CCN(Cc5ccc(C6CCC(=O)NC6=O)cn5)CC4)cc3)ncc2C(F)(F)F)c1 (stereo not shown) [GT-07466, 3-(6-((4-(4-((4-((3-(methylsulfonyl)benzyl)amino)-5-(trifluoromethyl)pyrimidin-2-yl)amino)phenyl)piperazin-1-yl)methyl)pyridin-3-yl)piperidine-2,6-dione] | A (A is defined as 0% ≤ substrate protein remaining % ≤ 80%) | –
CC1(C)CCC(c2ccc(Cl)cc2)=C(CN2CCN(c3ccc(C(=O)NS(=O)(=O)c4ccc(N[C@H](CCN5CCN(Cc6cc(N7CCC(=O)NC7=O)ncc6F)CC5)CSc5ccccc5)c(S(=O)(=O)C(F)(F)F)c4)cc3)CC2)C1 [GT-07716, (R)-4-(4-((4'-chloro-4,4-dimethyl-3,4,5,6-tetrahydro-[1,1'-biphenyl]-2-yl)methyl)piperazin-1-yl)-N-((4-((4-(4-((2-(2,4-dioxotetrahydropyrimidin-1(2H)-yl)-5-fluoropyridin-4-yl)methyl)piperazin-1-yl)-1-(phenylthio)butan-2-yl)amino)-3-((trifluoromethyl)sulfonyl)phenyl)sulfonyl)benzamide] | – | IC50 [2]: 10 to 50 nM; IC50 [3, 7]: 50 to 100 nM
CN(c1nccnc1CNc1nc(Nc2ccc(N3CCN(Cc4ccnc(N5CCC(=O)NC5=O)c4)CC3)cc2)ncc1C(F)(F)F)S(C)(=O)=O [GT-07406, N-(3-(((2-((4-(4-((2-(2,4-dioxotetrahydropyrimidin-1(2H)-yl)pyridin-4-yl)methyl)piperazin-1-yl)phenyl)amino)-5-(trifluoromethyl)pyrimidin-4-yl)amino)methyl)pyrazin-2-yl)-N-methylmethanesulfonamide] | A (A is defined as 0% ≤ substrate protein remaining % ≤ 80%) | –
O=C1CCC(Nc2cccc(CN3CCC(N4CCN(c5ccc6c(c5)nc(NC(=O)c5cccc(C(F)(F)F)c5)n6[C@H]5CC[C@@H](CO)CC5)CC4)CC3)c2)C(=O)N1 (stereo partly shown) [GT-05023, N-(5-(4-(1-(3-((2,6-dioxopiperidin-3-yl)amino)benzyl)piperidin-4-yl)piperazin-1-yl)-1-((1s,4s)-4-(hydroxymethyl)cyclohexyl) -1H-benzo[d]imidazol-2-yl)-3-(trifluoromethyl)benzamide] | – | Degradation of substrate protein IRAK4 (substrate protein remaining %) [4]: A (A is defined as 0% ≤ substrate protein remaining % ≤ 80%); IC50 [5]: 500 to 1000 nM; IC50 [6]: 500 to 1000 nM; IC50 ([3]; Table B10, compounds designed based on the IRAK4 inhibitors, Jurkat cells, read-out: Inhibitory activity (IC50, nM) on tumor cell proliferation, Jurkat): 500 to 1000 nM
CC1(C)CCC(c2ccc(Cl)cc2)=C(CN2CCN(c3ccc(C(=O)NS(=O)(=O)c4ccc(N[C@H](CCN5CCN(Cc6ccnc(N7CCC(=O)NC7=O)c6)CC5)CSc5ccccc5)c(S(=O)(=O)C(F)(F)F)c4)cc3)CC2)C1 [GT-07717, (R)-4-(4-((4'-chloro-4,4-dimethyl-3,4,5,6-tetrahydro-[1,1'-biphenyl]-2-yl)methyl)piperazin-1-yl)-N-((4-((4-(4-((2-(2,4-dioxotetrahydropyrimidin-1(2H)-yl)pyridin-4-yl)methyl)piperazin-1-yl)-1-(phenylthio)butan-2-yl)amino)-3-((trifluoromethyl)sulfonyl)phenyl)sulfonyl)benzamide] | – | IC50 [2]: 10 to 50 nM; IC50 [3, 7]: 10 to 50 nM
